Source: ChEMBL document CHEMBL1177785, “Chemoselective regulation of TREK2 channel: activation by sulfonate chalcones and inhibition by sulfonamide chalcones” (Bioorg Med Chem Lett, 2010)

Tests used:
[1] = target: T1, Potassium channel subfamily K member 10 (Rattus norvegicus, UniProt Q9JIS4); assay: Inhibition of rat TREK2 channel -mediated current expressed in HEK293 at 60 mV holding potential by patch clamp method; assay type: cell-based
T1 sequence (Q9JIS4 whole entry): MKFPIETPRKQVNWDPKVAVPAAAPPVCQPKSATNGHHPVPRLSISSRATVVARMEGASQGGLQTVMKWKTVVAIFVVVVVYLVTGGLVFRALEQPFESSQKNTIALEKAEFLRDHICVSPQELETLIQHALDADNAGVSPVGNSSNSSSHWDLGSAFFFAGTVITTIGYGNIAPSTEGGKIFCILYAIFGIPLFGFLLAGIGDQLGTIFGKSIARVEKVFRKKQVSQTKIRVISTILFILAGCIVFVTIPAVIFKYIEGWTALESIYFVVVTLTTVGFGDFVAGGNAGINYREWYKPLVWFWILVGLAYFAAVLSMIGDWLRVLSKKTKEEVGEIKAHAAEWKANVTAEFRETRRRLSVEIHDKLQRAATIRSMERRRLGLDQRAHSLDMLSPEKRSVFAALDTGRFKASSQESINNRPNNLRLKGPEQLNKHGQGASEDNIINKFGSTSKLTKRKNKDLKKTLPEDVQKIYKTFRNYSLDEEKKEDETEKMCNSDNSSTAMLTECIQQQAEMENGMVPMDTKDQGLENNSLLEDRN

[2] = target: T1, Potassium channel subfamily K member 10; assay: Activation of rat TREK2 channel -mediated current expressed in HEK293 at 60 mV holding potential by patch clamp method; assay type: cell-based

IC50 [1] [µM] | EC50 [2] [µM] | SMILES
> 100 | – | Cc1ccc(S(=O)(=O)Nc2ccc(C(=O)/C=C/c3ccccc3)cc2)cc1
100 | – | COc1ccc(/C=C/C(=O)c2ccc(NS(=O)(=O)c3ccc(C)cc3)cc2)cc1
62 | – | Cc1ccc(S(=O)(=O)Nc2ccc(C(=O)/C=C/c3ccc(O)cc3)cc2)cc1
– | 167 | Cc1ccc(S(=O)(=O)Oc2ccc(C(=O)/C=C/c3ccc(O)cc3)cc2)cc1
